Experimental data: ChEMBL document CHEMBL5465560, “Selectivity Literature for EUbOPEN Chemogenomic Library” (2024)
Values belong to the compound of their own block, whether it stands above or below them.

Experiments:
[1] = molecular target: T1, Cyclin-dependent kinase 13 (Homo sapiens, UniProt Q14004); experiment: Selectivity interaction (Western blot assay (pull-down blockage of CDK7-cyclin H using lysates from Jurkat cells)) EUB0001635a CDK13; assay type: subcellular, lysate
[2] = molecular target: T1, Cyclin-dependent kinase 13; experiment: Selectivity interaction (Western blot assay (pull-down blockage of CDK7-cyclin H using lysates from HAP1 cells)) EUB0001635a CDK13; assay type: cell-based
[3] = molecular target: Cyclin-dependent kinase 7 (Homo sapiens, UniProt P50613, C312S); experiment: Selectivity interaction (Radioactive kinase assays (from cellular C312S flag-tagged CDK7 immunoprecipitated in HeLa cells)) EUB0001635a CDK7; assay type: cell-based
[4] = molecular target: T2, Cyclin-dependent kinase 7 (Homo sapiens, UniProt P50613); experiment: Selectivity interaction (Western blot assay (pull-down blockage of CDK7-cyclin H using lysates from Jurkat cells)) EUB0001635a CDK7; assay type: subcellular, lysate
[5] = molecular target: T2, Cyclin-dependent kinase 7; experiment: Selectivity interaction (Western blot assay (pull-down blockage of CDK7-cyclin H using lysates from HAP1 cells)) EUB0001635a CDK7; assay type: cell-based
[6] = molecular target: T3, Cyclin-dependent kinase 12 (Homo sapiens, UniProt Q9NYV4); experiment: Selectivity interaction (Western blot assay (pull-down blockage of CDK7-cyclin H using lysates from Jurkat cells)) EUB0001635a CDK12; assay type: subcellular, lysate
[7] = molecular target: T1, Cyclin-dependent kinase 13; experiment: Selectivity interaction (Radioactive kinase activity assay) EUB0001635a CDK13
[8] = molecular target: T3, Cyclin-dependent kinase 12; experiment: Selectivity interaction (Radioactive kinase activity assay) EUB0001635a CDK12
[9] = molecular target: T3, Cyclin-dependent kinase 12; experiment: Selectivity interaction (Western blot assay (pull-down blockage of CDK7-cyclin H using lysates from HAP1 cells)) EUB0001635a CDK12; assay type: cell-based
[10] = molecular target: T2, Cyclin-dependent kinase 7; experiment: Selectivity interaction (Electrophoretic mobility shift assay) EUB0001635a CDK7
[11] = molecular target: CDK7/Cyclin H/MNAT1 (Homo sapiens) (UniProt P51946+P50613+P51948); experiment: Selectivity interaction (Kinase panel (literature)) EUB0001623a CDK7; assay type: protein-complex assay; conditions: at 1 µM
[12] = molecular target: Cyclin-dependent kinase 3 (Homo sapiens) (UniProt Q00526); conditions: at 1 µM
[13] = molecular target: Cyclin-dependent kinase 2/cyclin A (Homo sapiens) (UniProt P24941+P20248+P78396); experiment: Selectivity interaction (Kinase panel (literature)) EUB0001623a CDK2; assay type: protein-complex assay; conditions: at 1 µM
D(2) dopamine receptor [14] = molecular target: T4, D(2) dopamine receptor (Homo sapiens, UniProt P14416); experiment: (§1) Selectivity interaction (CEREP panel (binding assay, receptors and ion channels)) EUB0001623a DRD2
[15] = molecular target: Adenosine receptor A1 (Homo sapiens) (UniProt P30542); experiment: Selectivity interaction (CEREP panel (binding assay, receptors and ion channels)) EUB0001623a ADORA1; conditions: at 1 µM
[16] = molecular target: CDK6/cyclin D3 (Homo sapiens) (UniProt P30281+Q00534); experiment: Selectivity interaction (Kinase panel (literature)) EUB0001623a CDK6; assay type: protein-complex assay; conditions: at 1 µM
[17] = molecular target: Cyclin-dependent kinase 2/cyclin E (Homo sapiens) (UniProt P24864+P24941+O96020); conditions: at 1 µM
[18] = molecular target: CDK9/cyclin T1 (Homo sapiens) (UniProt O60563+P50750); experiment: Selectivity interaction (Kinase panel (literature)) EUB0001623a CDK9; assay type: protein-complex assay; conditions: at 1 µM
[19] = molecular target: Ribosomal protein S6 kinase beta-1 (Homo sapiens, UniProt P23443); experiment: Selectivity interaction (Kinase panel (literature)) EUB0001623a RPS6KB1; conditions: at 1 µM
[20] = molecular target: Cyclin-dependent kinase 5 (Homo sapiens, UniProt Q00535); experiment: (§2) Selectivity interaction (Kinase panel (literature)) EUB0001623a CDK5; conditions: at 1 µM
[21] = molecular target: T5, Receptor-type tyrosine-protein kinase FLT3 (Homo sapiens, UniProt P36888); experiment: Selectivity interaction (Kinase panel (literature)) EUB0001623a FLT3
T5 sequence (P36888 whole entry): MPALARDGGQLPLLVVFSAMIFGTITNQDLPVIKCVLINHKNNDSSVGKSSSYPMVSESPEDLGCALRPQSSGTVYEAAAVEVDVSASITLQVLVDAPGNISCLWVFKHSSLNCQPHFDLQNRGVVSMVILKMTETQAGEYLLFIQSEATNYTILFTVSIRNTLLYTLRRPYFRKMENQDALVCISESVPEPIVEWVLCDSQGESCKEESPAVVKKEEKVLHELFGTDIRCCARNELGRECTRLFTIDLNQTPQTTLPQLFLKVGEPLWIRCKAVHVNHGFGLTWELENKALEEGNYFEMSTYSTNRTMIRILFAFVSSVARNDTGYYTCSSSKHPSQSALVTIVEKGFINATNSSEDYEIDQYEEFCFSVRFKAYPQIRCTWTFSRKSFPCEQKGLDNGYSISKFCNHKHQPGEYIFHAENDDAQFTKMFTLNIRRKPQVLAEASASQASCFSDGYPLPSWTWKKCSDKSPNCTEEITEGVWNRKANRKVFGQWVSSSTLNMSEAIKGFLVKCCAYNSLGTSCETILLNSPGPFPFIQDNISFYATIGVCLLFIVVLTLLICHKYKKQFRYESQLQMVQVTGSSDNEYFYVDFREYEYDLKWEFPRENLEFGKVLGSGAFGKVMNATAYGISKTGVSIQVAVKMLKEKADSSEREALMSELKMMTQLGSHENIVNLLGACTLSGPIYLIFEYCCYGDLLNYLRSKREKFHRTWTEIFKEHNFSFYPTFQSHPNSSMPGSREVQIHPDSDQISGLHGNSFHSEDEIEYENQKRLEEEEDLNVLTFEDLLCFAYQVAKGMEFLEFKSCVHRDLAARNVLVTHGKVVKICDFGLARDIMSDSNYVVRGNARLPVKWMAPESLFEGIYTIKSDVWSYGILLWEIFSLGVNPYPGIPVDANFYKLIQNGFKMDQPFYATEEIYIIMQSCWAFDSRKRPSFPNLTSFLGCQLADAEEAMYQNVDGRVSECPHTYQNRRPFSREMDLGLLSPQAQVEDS

[22] = molecular target: NT-3 growth factor receptor (Homo sapiens, UniProt Q16288); experiment: Selectivity interaction (Kinase panel (literature)) EUB0001623a NTRK3
D(2) dopamine receptor [23] = molecular target: T4, D(2) dopamine receptor; experiment: as §1; conditions: at 1 µM
[24] = molecular target: Cyclin-dependent kinase 8 (Homo sapiens, UniProt P49336); experiment: Selectivity interaction (Reporter displacement assay) EUB0001623a CDK8
[25] = molecular target: Cyclin-dependent kinase 1/cyclin B (Homo sapiens) (UniProt P06493+P14635+Q8WWL7+O95067); experiment: Selectivity interaction (Kinase panel (literature)) EUB0001623a CDK1; assay type: protein-complex assay; conditions: at 1 µM
[26] = molecular target: T6, Serine/threonine-protein kinase Sgk1 (Homo sapiens) (UniProt O00141); experiment: Selectivity interaction (Kinase panel (literature)) EUB0001623a SGK1; conditions: at 1 µM
T6 sequence (whole entry): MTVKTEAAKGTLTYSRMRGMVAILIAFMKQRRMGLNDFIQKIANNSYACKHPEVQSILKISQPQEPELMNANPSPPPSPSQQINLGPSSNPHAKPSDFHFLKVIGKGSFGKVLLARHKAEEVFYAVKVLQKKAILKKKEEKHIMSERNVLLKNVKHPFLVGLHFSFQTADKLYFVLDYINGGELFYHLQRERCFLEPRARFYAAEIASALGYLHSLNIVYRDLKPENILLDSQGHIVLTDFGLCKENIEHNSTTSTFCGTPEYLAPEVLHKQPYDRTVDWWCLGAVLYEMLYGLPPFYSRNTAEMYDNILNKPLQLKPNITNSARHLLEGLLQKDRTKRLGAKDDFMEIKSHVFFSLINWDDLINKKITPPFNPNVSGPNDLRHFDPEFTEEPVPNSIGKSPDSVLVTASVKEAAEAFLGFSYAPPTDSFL

[27] = molecular target: Cyclin-dependent kinase 9 (Homo sapiens, UniProt P50750); experiment: Selectivity interaction (Reporter displacement assay) EUB0001623a CDK9
[28] = molecular target: CDK5/Cyclin D3 (Homo sapiens) (UniProt Q00535+P30281); experiment: as §2; assay type: protein-complex assay; conditions: at 1 µM

T1 sequence (Q14004 whole entry): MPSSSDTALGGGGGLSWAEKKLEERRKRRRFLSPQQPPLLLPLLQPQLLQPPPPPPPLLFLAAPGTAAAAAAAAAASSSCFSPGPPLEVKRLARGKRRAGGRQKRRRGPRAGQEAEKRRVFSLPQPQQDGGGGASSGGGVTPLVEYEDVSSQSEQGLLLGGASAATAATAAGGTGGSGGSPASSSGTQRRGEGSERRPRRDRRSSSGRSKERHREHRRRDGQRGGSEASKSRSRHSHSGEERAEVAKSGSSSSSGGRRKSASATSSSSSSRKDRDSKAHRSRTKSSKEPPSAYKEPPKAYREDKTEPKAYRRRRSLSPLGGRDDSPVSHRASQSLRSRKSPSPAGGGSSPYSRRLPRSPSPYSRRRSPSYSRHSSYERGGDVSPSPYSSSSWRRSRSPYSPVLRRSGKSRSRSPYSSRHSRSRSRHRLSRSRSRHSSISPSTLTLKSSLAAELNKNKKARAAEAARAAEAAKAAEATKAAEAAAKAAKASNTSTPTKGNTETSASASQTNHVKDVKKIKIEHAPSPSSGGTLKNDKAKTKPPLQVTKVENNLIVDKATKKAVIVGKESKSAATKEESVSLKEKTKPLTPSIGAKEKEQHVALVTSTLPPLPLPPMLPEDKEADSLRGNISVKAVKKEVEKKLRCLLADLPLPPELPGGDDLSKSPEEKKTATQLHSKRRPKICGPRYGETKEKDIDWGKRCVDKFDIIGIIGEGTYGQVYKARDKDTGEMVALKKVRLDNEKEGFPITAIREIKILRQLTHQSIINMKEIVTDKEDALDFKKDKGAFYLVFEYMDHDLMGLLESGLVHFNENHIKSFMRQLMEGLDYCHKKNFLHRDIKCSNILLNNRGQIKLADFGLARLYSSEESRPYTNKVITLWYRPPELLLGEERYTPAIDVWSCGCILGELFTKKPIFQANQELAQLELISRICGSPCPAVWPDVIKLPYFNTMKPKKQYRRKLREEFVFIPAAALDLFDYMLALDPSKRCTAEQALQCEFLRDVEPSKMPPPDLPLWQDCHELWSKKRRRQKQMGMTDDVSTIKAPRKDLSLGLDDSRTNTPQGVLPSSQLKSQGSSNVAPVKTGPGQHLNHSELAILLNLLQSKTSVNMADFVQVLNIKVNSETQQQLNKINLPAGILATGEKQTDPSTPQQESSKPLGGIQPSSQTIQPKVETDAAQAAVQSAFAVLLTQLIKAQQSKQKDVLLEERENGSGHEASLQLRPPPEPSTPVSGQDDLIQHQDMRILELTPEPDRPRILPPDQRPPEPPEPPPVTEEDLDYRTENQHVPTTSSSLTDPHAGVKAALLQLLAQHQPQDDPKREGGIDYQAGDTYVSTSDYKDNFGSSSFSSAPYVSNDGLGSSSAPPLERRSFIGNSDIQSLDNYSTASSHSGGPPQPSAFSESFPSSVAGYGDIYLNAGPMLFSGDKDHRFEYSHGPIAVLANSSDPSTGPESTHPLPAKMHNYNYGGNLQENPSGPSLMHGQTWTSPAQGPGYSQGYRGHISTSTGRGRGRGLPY
T3 sequence (Q9NYV4 whole entry): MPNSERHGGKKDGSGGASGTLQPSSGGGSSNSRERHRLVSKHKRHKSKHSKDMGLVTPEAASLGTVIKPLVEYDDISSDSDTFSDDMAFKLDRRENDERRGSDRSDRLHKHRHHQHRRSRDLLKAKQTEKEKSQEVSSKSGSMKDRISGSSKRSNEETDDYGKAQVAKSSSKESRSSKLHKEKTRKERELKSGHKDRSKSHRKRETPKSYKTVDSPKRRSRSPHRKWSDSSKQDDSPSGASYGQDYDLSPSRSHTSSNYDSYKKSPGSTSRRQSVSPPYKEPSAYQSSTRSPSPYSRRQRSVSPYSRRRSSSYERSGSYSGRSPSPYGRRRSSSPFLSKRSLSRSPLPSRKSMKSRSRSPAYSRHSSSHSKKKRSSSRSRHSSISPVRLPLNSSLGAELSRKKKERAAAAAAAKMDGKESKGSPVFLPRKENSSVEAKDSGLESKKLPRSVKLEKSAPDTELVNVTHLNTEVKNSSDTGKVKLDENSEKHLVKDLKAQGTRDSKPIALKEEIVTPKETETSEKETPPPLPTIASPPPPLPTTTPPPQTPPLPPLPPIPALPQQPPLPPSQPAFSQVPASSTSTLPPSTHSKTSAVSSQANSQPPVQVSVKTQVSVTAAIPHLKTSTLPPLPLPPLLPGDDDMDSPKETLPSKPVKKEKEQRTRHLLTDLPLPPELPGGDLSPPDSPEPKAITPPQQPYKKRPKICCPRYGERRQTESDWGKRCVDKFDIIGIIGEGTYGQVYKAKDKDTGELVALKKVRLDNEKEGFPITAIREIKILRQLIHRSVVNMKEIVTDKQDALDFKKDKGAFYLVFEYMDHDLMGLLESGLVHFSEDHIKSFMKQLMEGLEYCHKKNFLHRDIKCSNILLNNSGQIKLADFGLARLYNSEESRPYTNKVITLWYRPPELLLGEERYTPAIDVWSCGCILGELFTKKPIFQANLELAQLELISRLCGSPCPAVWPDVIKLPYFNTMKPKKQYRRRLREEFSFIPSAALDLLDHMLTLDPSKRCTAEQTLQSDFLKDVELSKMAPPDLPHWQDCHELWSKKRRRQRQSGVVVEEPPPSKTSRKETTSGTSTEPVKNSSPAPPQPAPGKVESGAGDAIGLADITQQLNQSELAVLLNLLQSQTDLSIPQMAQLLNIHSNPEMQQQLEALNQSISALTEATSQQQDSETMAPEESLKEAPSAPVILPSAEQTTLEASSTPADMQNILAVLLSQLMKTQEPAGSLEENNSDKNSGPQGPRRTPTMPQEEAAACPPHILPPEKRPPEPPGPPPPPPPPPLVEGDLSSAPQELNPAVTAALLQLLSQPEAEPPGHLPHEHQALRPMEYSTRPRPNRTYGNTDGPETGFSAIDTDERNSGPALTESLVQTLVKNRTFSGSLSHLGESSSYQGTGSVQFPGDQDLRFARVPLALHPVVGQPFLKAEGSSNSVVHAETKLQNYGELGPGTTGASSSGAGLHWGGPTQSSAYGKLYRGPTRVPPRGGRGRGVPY
T2 sequence (P50613 whole entry): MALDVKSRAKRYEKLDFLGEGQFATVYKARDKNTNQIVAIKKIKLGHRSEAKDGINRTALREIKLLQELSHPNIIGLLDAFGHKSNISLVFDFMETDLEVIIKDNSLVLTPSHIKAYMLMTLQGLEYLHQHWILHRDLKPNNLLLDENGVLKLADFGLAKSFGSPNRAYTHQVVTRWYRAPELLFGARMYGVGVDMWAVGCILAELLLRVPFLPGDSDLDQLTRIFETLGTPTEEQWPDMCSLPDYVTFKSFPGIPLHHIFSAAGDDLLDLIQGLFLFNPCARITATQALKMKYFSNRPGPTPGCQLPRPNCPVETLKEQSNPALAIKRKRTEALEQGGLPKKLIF
T4 sequence (P14416 whole entry): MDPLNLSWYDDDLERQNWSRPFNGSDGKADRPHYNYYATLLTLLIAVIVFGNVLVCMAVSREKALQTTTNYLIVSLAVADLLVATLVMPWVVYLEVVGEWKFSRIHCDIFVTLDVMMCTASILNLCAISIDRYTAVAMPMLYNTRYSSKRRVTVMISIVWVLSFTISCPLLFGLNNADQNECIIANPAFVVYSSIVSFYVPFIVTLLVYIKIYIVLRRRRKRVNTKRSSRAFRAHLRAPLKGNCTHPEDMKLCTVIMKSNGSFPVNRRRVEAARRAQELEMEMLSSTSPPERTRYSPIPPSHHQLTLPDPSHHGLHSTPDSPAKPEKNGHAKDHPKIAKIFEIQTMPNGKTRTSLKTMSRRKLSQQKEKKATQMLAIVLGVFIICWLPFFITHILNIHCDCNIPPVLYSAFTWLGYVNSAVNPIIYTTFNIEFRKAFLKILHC
Cyclin-dependent kinase 8, sequence (P49336 whole entry): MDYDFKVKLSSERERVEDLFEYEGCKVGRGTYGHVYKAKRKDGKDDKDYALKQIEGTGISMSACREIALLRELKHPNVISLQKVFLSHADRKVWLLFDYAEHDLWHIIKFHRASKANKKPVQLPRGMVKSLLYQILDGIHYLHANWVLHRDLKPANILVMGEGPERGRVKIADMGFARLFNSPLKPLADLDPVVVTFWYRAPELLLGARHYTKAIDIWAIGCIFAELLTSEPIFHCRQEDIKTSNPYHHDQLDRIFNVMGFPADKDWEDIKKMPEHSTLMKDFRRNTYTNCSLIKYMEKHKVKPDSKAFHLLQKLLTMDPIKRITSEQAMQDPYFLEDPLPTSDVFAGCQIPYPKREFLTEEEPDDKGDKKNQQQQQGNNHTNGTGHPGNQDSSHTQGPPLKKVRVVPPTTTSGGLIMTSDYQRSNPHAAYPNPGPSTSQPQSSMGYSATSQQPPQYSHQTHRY
Ribosomal protein S6 kinase beta-1, sequence (P23443 whole entry, looked up): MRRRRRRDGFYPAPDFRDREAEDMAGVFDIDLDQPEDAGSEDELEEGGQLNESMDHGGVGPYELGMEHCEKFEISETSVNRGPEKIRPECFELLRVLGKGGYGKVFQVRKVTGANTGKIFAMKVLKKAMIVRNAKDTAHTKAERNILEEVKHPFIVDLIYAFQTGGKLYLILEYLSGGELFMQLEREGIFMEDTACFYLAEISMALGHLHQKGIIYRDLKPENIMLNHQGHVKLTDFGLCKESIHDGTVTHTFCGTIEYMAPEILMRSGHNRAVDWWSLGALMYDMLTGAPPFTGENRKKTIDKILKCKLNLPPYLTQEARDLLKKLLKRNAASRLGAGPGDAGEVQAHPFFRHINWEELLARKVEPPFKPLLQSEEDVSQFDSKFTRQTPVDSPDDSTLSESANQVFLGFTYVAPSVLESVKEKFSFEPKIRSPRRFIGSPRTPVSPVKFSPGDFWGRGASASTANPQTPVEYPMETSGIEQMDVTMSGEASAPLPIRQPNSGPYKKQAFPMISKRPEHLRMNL
Cyclin-dependent kinase 5, sequence (Q00535 whole entry, looked up): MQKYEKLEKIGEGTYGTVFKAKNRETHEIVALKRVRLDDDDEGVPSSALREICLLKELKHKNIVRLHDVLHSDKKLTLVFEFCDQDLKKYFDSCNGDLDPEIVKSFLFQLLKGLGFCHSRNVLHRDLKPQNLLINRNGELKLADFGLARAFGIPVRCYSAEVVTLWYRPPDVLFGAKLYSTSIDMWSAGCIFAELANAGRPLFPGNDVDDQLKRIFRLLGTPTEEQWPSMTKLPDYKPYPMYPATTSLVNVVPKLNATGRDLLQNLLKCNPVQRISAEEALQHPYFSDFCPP

- IC50 [1]: > 1000 nM
- IC50 [2]: > 1000 nM
- IC50 [3]: > 10000 nM
- IC50 [4]: > 30000 nM
- IC50 [5]: > 30000 nM
- IC50 [6]: > 1000 nM
- IC50 [7]: > 10000 nM
- IC50 [8]: > 10000 nM
- IC50 [9]: > 1000 nM
- Ki [10]: 1.9 nM
SMILES: C=CC(=O)Nc1ccc(C(=O)Nc2n[nH]c3c2CN(C(=O)N[C@H](CN(C)C)c2ccccc2)C3(C)C)cc1

- % of inhibition [11]: 7%
- % of inhibition [12]: 2%
- % of inhibition [13]: -7%
- IC50 (D(2) dopamine receptor [14]): 8500 nM
- % of inhibition [15]: 48%
- % of inhibition [16]: 12%
- % of inhibition [17]: 18%
- % of inhibition [18]: 13%
- % of inhibition [19]: 47%
- % of inhibition [20]: -1%
- IC50 [21]: > 30000 nM
- IC50 [22]: > 30000 nM
- % of inhibition (D(2) dopamine receptor [23]): 54%
- IC50 [24]: 4 nM
- % of inhibition [25]: 2%
- % of inhibition [26]: 39%
- IC50 [27]: 4 nM
- % of inhibition [28]: -1%
SMILES: Cc1n[nH]c2ncc(C(=O)N3CCC[C@H]3c3ccc(Cl)cc3)cc12
